From patent US20030119862A1, “Pharmaceutical combination” (priority 2001, published 2003)
Where two headings read alike, the source gives them in different places.

Test system: isolated human neutrophils
Test: Inhibition of fMLP-induced elastase release from isolated human neutrophils
Format: cell-based
Conditions: read-out: Inhibition of elastase release (IC50)
Protocol: Test data—Inhibition of Elastase Release from Isolated Human Neutrophils
The dextran/blood was mixed gently by inversion and left to stand at room temperature for 45 minutes to allow erythrocyte sedimentation. Aliquots of 16 ml from the leukocyte-rich supernatant were overlaid on 10 ml Ficoll-Hypaque cushions in 50 ml polypropylene centrifuge tubes and the tubes centrifuged at 400 g for 35 mins at 21° C. The plasma, mononuclear cell layer and Ficoll were removed leaving the granulocyte-rich pellet. The pellets were initially re-suspended in 10 ml ice-cold distilled water for 45 seconds to lyse contaminating red blood cells, followed by the addition of 10 ml of ice-cold double concentrated phosphate buffered saline (PBS) solution to each tube to restore osmolarity. The suspensions were re-centrifuged at 200 g for 10 min at 4° C. to generate neutrophil pellets. The supernatants were removed and the pellets gently resuspended in a total volume of 10 ml ice-cold HBSS using a Pasteur pipette. A differential white cell count was performed on the resulting neutrophil suspension using a Beckman Coulter Ac. T5 haematology analyser and the cells stored on ice until assay. Immediately prior to assay, aliquots of the neutrophil suspension were removed and diluted to a count of 4×10^6 neutrophils/ml ice-cold HBSS containing 2U/ml adenosine deaminase.
Inhibition of fMLP induced elastase release was performed using a 160 μl assay volume in 96-well polystyrene microtiter plates. Elastase release was assayed by measuring the rate of cleavage of the synthetic substrate MeOSuc-Ala-Ala-Pro-Val-pNA. […] Assay plates were incubated at 37° C. for 10 minutes before addition of 8 μl of 2 μM fMLP (in HBSS) and measurement of rate of substrate cleavage was measured at λ=405 nm for 3 minutes at 37° C. Basal elastase, release was determined by the addition of 8 μl HBSS in place of fMLP. […] In the case of the combination experiments, 1000 nM of Ariflo (trade mark) (A) (also known as cilomilast) or 9-cyclopentyl-5,6-dihydro-7-ethyl-3-(2-thienyl)-9H-pyrazolo[3,4-c]-1,2,4-triazolo[4,3-α]pyridine and 9-cyclopentyl-5,6-dihydro-7-ethyl-3-(tert-butyl)-9H-pyrazolo[3,4-c]-1,2,4-triazolo[4,3-c]pyridine (C) were added to the assay and a concentration response curve was then generated for formoterol (F) or salmeterol (S).

[1] = Neutrophil, single agent, fMLP-induced elastase release, isolated human neutrophils

IC50 [1] [µM]	Structure (SMILES)	further results
> 1	COc1ccc([C@]2(C#N)CC[C@@H](C(=O)O)CC2)cc1OC1CCCC1 [A, cilomilast]	–
–	CCc1nn(C2CCCC2)c2c1CCn1c(-c3cccs3)nnc1-2 [C, 9-cyclopentyl-5,6-dihydro-7-ethyl-3-(2-thienyl)-9H-pyrazolo[3,4-c]-1,2,4-triazolo[4,3-α]pyridine and 9-cyclopentyl-5,6-dihydro-7-ethyl-3-(tert-butyl)-9H-pyrazolo[3,4-c]-1,2,4-triazolo[4,3-c]pyridine]	IC50 (single agent, fMLP-induced elastase release, isolated human neutrophils): > 1 µM
–	COc1ccc(CC(C)NCC(O)c2ccc(O)c(NC=O)c2)cc1 (stereo not shown) [F, N-[2-hydroxy-5-(1-hydroxy-2-((2-(4-methoxyphenyl)-1-methylethyl)amino)ethyl)phenyl]formamide]	IC50 (Homo sapiens, Neutrophil): > 1 µM
> 1	OCc1cc(C(O)CNCCCCCCOCCCCc2ccccc2)ccc1O (stereo not shown) [S, salmeterol]	–
